Reference: publication PMC11597207, “Synthesis and Anti-Inflammatory and Analgesic Potentials of Ethyl 2-(2,5-Dioxo-1-Phenylpyrrolidin-3-yl)-2-Methylpropanoate” (Pharmaceuticals, 2024)
Values joined by “and” are separate entries in the source; they are usually repeats but may differ in a detail not shown here. Identical values can stand only once.

Assays:
Format in all cases: in vivo
mice [1] = test: Hot plate antinociceptive test
mice [2] = test: Acute toxicity in mice
Description: The synthesized compound was assessed for its acute toxicity using mice sourced from the National Institute of Health in Pakistan. The mice for the experiment were categorized into several groups. Some groups were designated to receive the test samples, and another was set as a control group. […]. These compounds were first dissolved in normal saline before being administered. […]. The mice were monitored for a period of 24 h to 4 weeks following the administration of the pivalate-based Michael product. The study closely observed the mice for any irregular behavior, such as ataxia, aggressive reactions, and potential allergic symptoms, among others. Furthermore, any harmful outcomes or lethality were also recorded. These observations and recorded adverse events were compared between the group treated with the test compound and the control group. These comparisons offer valuable insights into the toxicity levels of the newly synthesized compounds [47].

[3] = tested on: carrageenan-induced paw edema; test: Carrageenan-induced paw edema model; conditions: mice
Description: The anti-inflammatory activity of MAK01 was evaluated through a carrageenan-induced paw edema model. The mice, with weights ranging from 25 to 30 g, were separated into five distinct groups, these being Vehicle Group 1, Aspirin Group 2, and different concentrations of MAK01 in Groups 3–5. Each of these groups comprised five mice. The negative control group in the experiment received a specific solution comprising normal saline, DMSO, and Tween-80. The mixture contained 94% normal saline, 5% DMSO, and 1% Tween-80, delivered at a concentration of 10 mL per kg. In contrast, the positive control group in the assay received the comparator aspirin at a precise dose of 10 mg/kg. The test samples were administered at doses of 10 mg/kg, 20 mg/kg, and 30 mg/kg, given intra-peritoneally. After 30 min, a 2% carrageenan suspension (0.2 mL) was administered to each mouse in every group via a subcutaneous injection in the hind paw. In the experiment, a plethysmometer was used to precisely measure inflammation and edema. These measurements were taken at multiple time points both prior to and following the carrageenan administration. Specifically, the readings were recorded at 1, 2, 3, 4, and 5 h intervals to monitor the progress of the inflammatory response and paw swelling. These obtained results were then compared against the outcomes from the negative control group. The gathered data from the experiment, relating to the impact of the newly synthesized compounds on paw edema, were carefully processed to derive the percentage of edema inhibition. Using the below equation, the percent inhibition was calculated. % Inhibition=Ce−Te/Ce×100
In the formula, ‘Ce’ refers to the control group paw edema volume, while ‘Te’ denotes test groups’ paw edema volume.

CCOC(=O)C(C)(C)C1CC(=O)N(c2ccccc2)C1=O (centres unmarked) [MAK01, ethyl 2-(2,5-dioxo-1-phenylpyrrolidin-3-yl)-2-methylpropanoate]
Latency Time (Seconds) on Hot Plate (mice [1]; dose 50 mg/kg, 30 min): 10.32 ± 0.82 s | Latency Time (Seconds) on Hot Plate (mice [1]; dose 50 mg/kg, 60 min): 9.96 ± 0.16 s | Latency Time (Seconds) on Hot Plate (mice [1]; dose 50 mg/kg, 90 min): 9.63 ± 0.26 s | Latency Time (Seconds) on Hot Plate (mice [1]; dose 50 mg/kg, 120 min): 9.49 ± 0.25 s | Latency Time (Seconds) on Hot Plate (mice [1]; dose 50 mg/kg, 150 min): 9.16 ± 0.81 s | Latency Time (Seconds) on Hot Plate (mice [1]; dose 100 mg/kg, 30 min): 12.16 ± 0.51 Seconds and 12.16 ± 0.51 ^ns Seconds | Latency Time (Seconds) on Hot Plate (mice [1]; dose 100 mg/kg, 60 min): 11.92 ± 0.71 s | Latency Time (Seconds) on Hot Plate (mice [1]; dose 100 mg/kg, 90 min): 11.76 ± 0.87 ^ns Seconds | Latency Time (Seconds) on Hot Plate (mice [1]; dose 100 mg/kg, 120 min): 11.14 ± 0.91 ^ns Seconds | Latency Time (Seconds) on Hot Plate (mice [1]; dose 100 mg/kg, 150 min): 10.96 ± 0.74 s | Latency Time (Seconds) on Hot Plate (mice [1]; dose 150 mg/kg, 30 min): 12.93 ± 0.45 Seconds and 12.93 ± 0.45 ^ns Seconds | Latency Time (Seconds) on Hot Plate (mice [1]; dose 150 mg/kg, 60 min): 12.85 ± 0.84 ^ns Seconds | Latency Time (Seconds) on Hot Plate (mice [1]; dose 150 mg/kg, 90 min): 12.42 ± 0.36 ^ns Seconds | Latency Time (Seconds) on Hot Plate (mice [1]; dose 150 mg/kg, 120 min): 11.98 ± 0.74 ^ns Seconds | Latency Time (Seconds) on Hot Plate (mice [1]; dose 150 mg/kg, 150 min): 11.76 ± 0.41 ^ns Seconds | Lethal dose (mice [2]; both, mouse, in vivo, po): ~1000 mg per kg of body weight | Signs of toxicity (mice [2]; mice, oral, doses higher than 1000 mg per kg): distress, agitation, convulsions, discomfort, and abnormal behavior | Paw Edema Inhibition in Percent ([3]; dose 10 mg/kg, 1 h): 30.3 ± 0.77 ^ns % | Paw Edema Inhibition in Percent ([3]; dose 10 mg/kg, 2 h): 33.34 ± 0.98 % | Paw Edema Inhibition in Percent ([3]; dose 10 mg/kg, 3 h): 19.62 ± 0.64 % | Paw Edema Inhibition in Percent ([3]; dose 10 mg/kg, 4 h): 31.44 ± 0.74 % | Paw Edema Inhibition in Percent ([3]; dose 10 mg/kg, 5 h): 31.22 ± 0.84 % | Paw Edema Inhibition in Percent ([3]; dose 20 mg/kg, 1 h): 34.7 ± 0.74 ^ns % | Paw Edema Inhibition in Percent ([3]; dose 20 mg/kg, 2 h): 34.7 ± 0.74% and 34.54 ± 0.76 % | Paw Edema Inhibition in Percent ([3]; dose 20 mg/kg, 3 h): 21.42 ± 0.64 % | Paw Edema Inhibition in Percent ([3]; dose 20 mg/kg, 4 h): 29.52 ± 0.63 % | Paw Edema Inhibition in Percent ([3]; dose 20 mg/kg, 5 h): 31.85 ± 0.32 % | Paw Edema Inhibition in Percent ([3]; dose 30 mg/kg, 1 h): 38.74 ± 0.81 ^ns % | Paw Edema Inhibition in Percent ([3]; dose 30 mg/kg, 2 h): 39.20 ± 0.86 % | Paw Edema Inhibition in Percent ([3]; dose 30 mg/kg, 3 h): 34.4 ± 0.64 % | Paw Edema Inhibition in Percent ([3]; dose 30 mg/kg, 4 h): 37.64 ± 0.86 % | Paw Edema Inhibition in Percent ([3]; dose 30 mg/kg, 5 h): 40.58 ± 0.84% and 40.58%
